Columns and labels:
Experiment in all cases: Kinase inhibitor library screening, PrestoBlue cell viability, 1 or 10 μM, 72 h
[1] = tested on: A375-XP cells (Vemurafenib-resistant); conditions: A375 XP, 72 h; for cell viability, A375 XP, 1μΜ / cell viability, A375 XP, 10μΜ: in %
A375 cells (parental) = conditions: A375 Parental, 72 h; for cell viability, A375 Parental, 1μΜ / cell viability, A375 Parental, 10μΜ: in %
[2] = tested on: 501Mel-XP cells (Vemurafenib-resistant); conditions: 501Mel XP, 72 h; for cell viability, 501Mel XP, 1μΜ / cell viability, 501Mel XP, 10μΜ / Cell viability in kinase inhibitor library screening, 501Mel XP, 1μΜ / Cell viability in kinase inhibitor library screening, 501Mel XP, 10μΜ: in %
[3] = tested on: IGR37-XP cells (Vemurafenib-resistant); conditions: IGR37 XP, 72 h; for cell viability, IGR37 XP, 1μΜ / Cell viability in kinase inhibitor library screening, IGR37 XP, 1μΜ: in %; for cell viability, IGR37 XP, 10μΜ / Cell viability in kinase inhibitor library screening, IGR37 XP, 10μΜ / cell viability (kinase inhibitor library screening): 10μΜ
IGR37 cells (parental) = conditions: IGR37 Parental, 72 h; for cell viability, IGR37 Parental, 1μΜ / cell viability, IGR37 Parental, 10μΜ / Cell viability in kinase inhibitor library screening, IGR37 Parental, 1μΜ / Cell viability in kinase inhibitor library screening, IGR37 Parental, 10μΜ: in %
[4] = tested on: 501Mel-GP cells (Dabrafenib-resistant); conditions: 501Mel GP, 72 h; for cell viability, 501Mel GP, 1μΜ / cell viability, 501Mel GP, 10μΜ / Cell viability in kinase inhibitor library screening, 501Mel GP, 1μΜ / Cell viability in kinase inhibitor library screening, 501Mel GP, 10μΜ: in %
[5] = tested on: IGR37-GP cells (Dabrafenib-resistant); conditions: IGR37 GP, 72 h; for cell viability, IGR37 GP, 1μΜ / Cell viability in kinase inhibitor library screening, IGR37 GP, 1μΜ: in %
501Mel cells (parental) = conditions: 501Mel Parental, 72 h; for cell viability, 501Mel Parental, 1μΜ / cell viability, 501Mel Parental, 10μΜ / Cell viability in kinase inhibitor library screening, 501Mel Parental, 1μΜ / Cell viability in kinase inhibitor library screening, 501Mel Parental, 10μΜ: in %
In short: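 Single-point screen at two doses over three days. Parental and BRAF-inhibitor-resistant sublines (XP: Vemurafenib; GP: Dabrafenib) were assessed by PrestoBlue viability, reported relative to untreated cells.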

[6] = tested on: A375-GP cells (Dabrafenib-resistant); conditions: A375 GP, 72 h; for cell viability, A375 GP, 1μΜ / cell viability, A375 GP, 10μΜ: in %

Structure (SMILES): CN1CCN(c2ccc3nc(-c4c(N)c5c(F)cccc5[nH]c4=O)[nH]c3c2)CC1 [Dovitinib (TKI-258)]
- cell viability, A375 XP, 1μΜ ([1]; 1μΜ): 97.7
- cell viability, A375 XP, 10μΜ ([1]; 10μΜ): 58.3
- cell viability, A375 Parental, 1μΜ (A375 cells (parental); 1μΜ): 102.8
- cell viability, A375 Parental, 10μΜ (A375 cells (parental); 10μΜ): 47.2
- cell viability, 501Mel XP, 1μΜ ([2]; 1μΜ): 87.1
- cell viability, 501Mel XP, 10μΜ ([2]; 10μΜ): -0.0348
- cell viability, IGR37 XP, 10μΜ [3]: 22.5%
- cell viability, IGR37 XP, 1μΜ [3]: 102.6
- cell viability, IGR37 Parental, 1μΜ (IGR37 cells (parental); 1μΜ): 96.1
- cell viability, IGR37 Parental, 10μΜ (IGR37 cells (parental); 10μΜ): 64.0
- cell viability, 501Mel GP, 1μΜ ([4]; 1μΜ): 95.0
- cell viability, 501Mel GP, 10μΜ ([4]; 10μΜ): -0.1
- cell viability, IGR37 GP, 10μΜ ([5]; 10μΜ): 42.8%
- cell viability, IGR37 GP, 1μΜ ([5]; 1μΜ): 99.9
- cell viability, 501Mel Parental, 1μΜ (501Mel cells (parental); 1μΜ): 103.1
- cell viability, 501Mel Parental, 10μΜ (501Mel cells (parental); 10μΜ): 0.6
- cell viability, A375 GP, 1μΜ ([6]; 1μΜ): 93.5
- cell viability, A375 GP, 10μΜ ([6]; 10μΜ): 42.2

Structure (SMILES): Nc1cccc(-c2cc3c(Oc4cccc(O)c4)ncnc3[nH]2)c1 [TWS119]
- cell viability, A375 XP, 1μΜ ([1]; 1μΜ): 96.8
- cell viability, A375 XP, 10μΜ ([1]; 10μΜ): 67.4
- cell viability, A375 Parental, 1μΜ (A375 cells (parental); 1μΜ): 93.6
- cell viability, A375 Parental, 10μΜ (A375 cells (parental); 10μΜ): 29.8
- cell viability, 501Mel XP, 1μΜ ([2]; 1μΜ): 95.3
- cell viability, 501Mel XP, 10μΜ ([2]; 10μΜ): 26.6
- cell viability, IGR37 XP, 10μΜ [3]: 33.3%
- cell viability, IGR37 XP, 1μΜ [3]: 80.5
- cell viability, IGR37 Parental, 1μΜ (IGR37 cells (parental); 1μΜ): 100.4
- cell viability, IGR37 Parental, 10μΜ (IGR37 cells (parental); 10μΜ): 65.2
- cell viability, 501Mel GP, 10μΜ ([4]; 10μΜ): 40.8
- cell viability, IGR37 GP, 10μΜ ([5]; 10μΜ): 61.4%
- cell viability, IGR37 GP, 1μΜ ([5]; 1μΜ): 96.5
- cell viability, 501Mel Parental, 1μΜ (501Mel cells (parental); 1μΜ): 90.4
- cell viability, 501Mel Parental, 10μΜ (501Mel cells (parental); 10μΜ): 35.3
- cell viability, A375 GP, 1μΜ ([6]; 1μΜ): 97.7
- cell viability, A375 GP, 10μΜ ([6]; 10μΜ): 41.9

Structure (SMILES): COc1ccc(COc2cc3oc(=O)c4cc(C(C)O)ccc4c3cc2OC)cc1 (centres unmarked) [Palomid 529]
- Cell viability in kinase inhibitor library screening, A375 XP, 1μΜ ([1]; 1μΜ): 100.3
- Cell viability in kinase inhibitor library screening, A375 XP, 10μΜ ([1]; 10μΜ): 90.5
- Cell viability in kinase inhibitor library screening, A375 Parental, 10μΜ (A375 cells (parental); 10μΜ): 83.6
- Cell viability in kinase inhibitor library screening, 501Mel XP, 1μΜ ([2]; 1μΜ): 95.5
- Cell viability in kinase inhibitor library screening, 501Mel XP, 10μΜ ([2]; 10μΜ): 30.6
- Cell viability in kinase inhibitor library screening, IGR37 XP, 10μΜ [3]: 46.5%
- Cell viability in kinase inhibitor library screening, IGR37 XP, 1μΜ [3]: 98.2
- Cell viability in kinase inhibitor library screening, IGR37 Parental, 1μΜ (IGR37 cells (parental); 1μΜ): 102.9
- Cell viability in kinase inhibitor library screening, IGR37 Parental, 10μΜ (IGR37 cells (parental); 10μΜ): 103.1
- Cell viability in kinase inhibitor library screening, 501Mel GP, 1μΜ ([4]; 1μΜ): 90.2
- Cell viability in kinase inhibitor library screening, 501Mel GP, 10μΜ ([4]; 10μΜ): 80.5
- Cell viability in kinase inhibitor library screening, IGR37 GP, 10μΜ ([5]; 10μΜ): 75.1%
- Cell viability in kinase inhibitor library screening, IGR37 GP, 1μΜ ([5]; 1μΜ): 87.7
- Cell viability in kinase inhibitor library screening, 501Mel Parental, 1μΜ (501Mel cells (parental); 1μΜ): 87.4
- Cell viability in kinase inhibitor library screening, 501Mel Parental, 10μΜ (501Mel cells (parental); 10μΜ): 80.1
- Cell viability in kinase inhibitor library screening, A375 GP, 1μΜ ([6]; 1μΜ): 94.7
- Cell viability in kinase inhibitor library screening, A375 GP, 10μΜ ([6]; 10μΜ): 88.6

Structure (SMILES): Cc1cc(Nc2cc(N3CCN(C)CC3)nc(Sc3ccc(NC(=O)C4CC4)cc3)n2)n[nH]1 [VX-680 (MK-0457, Tozasertib)]
- cell viability (kinase inhibitor library screening) ([1]; 1μΜ): 56.4%
- cell viability (kinase inhibitor library screening) ([1]; 10μΜ): 35.5%
- cell viability (kinase inhibitor library screening) (A375 cells (parental); 10μΜ): 26.3%
- cell viability (kinase inhibitor library screening) (A375 cells (parental); 1μΜ): 47.5%
- cell viability (kinase inhibitor library screening) ([2]; 1μΜ): 74.1%
- cell viability (kinase inhibitor library screening) ([2]; 10μΜ): 26.8%
- cell viability (kinase inhibitor library screening) [3]: 3.9%
- cell viability (kinase inhibitor library screening) (IGR37 cells (parental); 1μΜ): 89.0%
- cell viability (kinase inhibitor library screening) (IGR37 cells (parental); 10μΜ): 63.5%
- cell viability (kinase inhibitor library screening) ([4]; 1μΜ): 85.8%
- cell viability (kinase inhibitor library screening) ([4]; 10μΜ): 48.3%
- cell viability (kinase inhibitor library screening) ([5]; 1μΜ): 94.7%
- cell viability (kinase inhibitor library screening) ([5]; 10μΜ): 11.6%
- cell viability (kinase inhibitor library screening) (501Mel cells (parental); 1μΜ): 85.5%
- cell viability (kinase inhibitor library screening) (501Mel cells (parental); 10μΜ): 48.7%
- cell viability (kinase inhibitor library screening) ([6]; 1μΜ): 45.1%
- cell viability (kinase inhibitor library screening) ([6]; 10μΜ): 30.5%

Structure (SMILES): COc1ccc(-c2ccc3c(N4CCOC[C@@H]4C)nc(N4CCOC[C@@H]4C)nc3n2)cc1CO [AZD8055]
- Cell viability in kinase inhibitor library screening, A375 XP, 1μΜ ([1]; 1μΜ): 21.6
- Cell viability in kinase inhibitor library screening, A375 XP, 10μΜ ([1]; 10μΜ): 17.3
- Cell viability in kinase inhibitor library screening, A375 Parental, 10μΜ (A375 cells (parental); 10μΜ): 19.2
- Cell viability in kinase inhibitor library screening, A375 Parental, 1μΜ (A375 cells (parental); 1μΜ): 23.1
- Cell viability in kinase inhibitor library screening, 501Mel XP, 1μΜ ([2]; 1μΜ): 13.9
- Cell viability in kinase inhibitor library screening, 501Mel XP, 10μΜ ([2]; 10μΜ): 4.6
- Cell viability in kinase inhibitor library screening, IGR37 XP, 10μΜ [3]: 12.5%
- Cell viability in kinase inhibitor library screening, IGR37 XP, 1μΜ [3]: 34.7
- Cell viability in kinase inhibitor library screening, IGR37 Parental, 1μΜ (IGR37 cells (parental); 1μΜ): 29.8
- Cell viability in kinase inhibitor library screening, IGR37 Parental, 10μΜ (IGR37 cells (parental); 10μΜ): 25.2
- Cell viability in kinase inhibitor library screening, 501Mel GP, 1μΜ ([4]; 1μΜ): 22.1
- Cell viability in kinase inhibitor library screening, 501Mel GP, 10μΜ ([4]; 10μΜ): 11.9
- Cell viability in kinase inhibitor library screening, IGR37 GP, 10μΜ ([5]; 10μΜ): 29.5%
- Cell viability in kinase inhibitor library screening, IGR37 GP, 1μΜ ([5]; 1μΜ): 45.1
- Cell viability in kinase inhibitor library screening, 501Mel Parental, 1μΜ (501Mel cells (parental); 1μΜ): 17.3
- Cell viability in kinase inhibitor library screening, 501Mel Parental, 10μΜ (501Mel cells (parental); 10μΜ): 8.1
- Cell viability in kinase inhibitor library screening, A375 GP, 1μΜ ([6]; 1μΜ): 25.5
- Cell viability in kinase inhibitor library screening, A375 GP, 10μΜ ([6]; 10μΜ): 16.6

Structure (SMILES): CO[C@@H](C(=O)N1Cc2n[nH]c(NC(=O)c3ccc(N4CCN(C)CC4)cc3)c2C1)c1ccccc1 [Danusertib (PHA-739358)]
- cell viability (kinase inhibitor library screening) ([1]; 1μΜ): 53.8%
- cell viability (kinase inhibitor library screening) ([1]; 10μΜ): 35.5%
- cell viability (kinase inhibitor library screening) (A375 cells (parental); 10μΜ): 28.0%
- cell viability (kinase inhibitor library screening) (A375 cells (parental); 1μΜ): 51.2%
- cell viability (kinase inhibitor library screening) ([2]; 1μΜ): 84.5%
- cell viability (kinase inhibitor library screening) ([2]; 10μΜ): 58.4%
- cell viability (kinase inhibitor library screening) [3]: 21.3%
- cell viability (kinase inhibitor library screening) (IGR37 cells (parental); 10μΜ): 59.2%
- cell viability (kinase inhibitor library screening) ([4]; 1μΜ): 94.8%
- cell viability (kinase inhibitor library screening) ([4]; 10μΜ): 72.3%
- cell viability (kinase inhibitor library screening) ([5]; 10μΜ): 66.0%
- cell viability (kinase inhibitor library screening) (501Mel cells (parental); 1μΜ): 94.3%
- cell viability (kinase inhibitor library screening) (501Mel cells (parental); 10μΜ): 80.7%
- cell viability (kinase inhibitor library screening) ([6]; 1μΜ): 48.5%
- cell viability (kinase inhibitor library screening) ([6]; 10μΜ): 27.8%

Structure (SMILES): O=C1NC(=O)C(c2ccccc2[N+](=O)[O-])=C1Nc1ccc(O)c(Cl)c1 [SB 415286]
- cell viability, A375 XP, 1μΜ ([1]; 1μΜ): 100.0
- cell viability, A375 XP, 10μΜ ([1]; 10μΜ): 92.8
- cell viability, A375 Parental, 1μΜ (A375 cells (parental); 1μΜ): 99.8
- cell viability, A375 Parental, 10μΜ (A375 cells (parental); 10μΜ): 78.1
- cell viability, 501Mel XP, 1μΜ ([2]; 1μΜ): 92.5
- cell viability, 501Mel XP, 10μΜ ([2]; 10μΜ): 76.3
- cell viability, IGR37 XP, 10μΜ [3]: 85.4%
- cell viability, IGR37 XP, 1μΜ [3]: 98.9
- cell viability, IGR37 Parental, 1μΜ (IGR37 cells (parental); 1μΜ): 102.6
- cell viability, 501Mel GP, 1μΜ ([4]; 1μΜ): 100.2
- cell viability, 501Mel GP, 10μΜ ([4]; 10μΜ): 76.0
- cell viability, IGR37 GP, 10μΜ ([5]; 10μΜ): 93.7%
- cell viability, IGR37 GP, 1μΜ ([5]; 1μΜ): 94.9
- cell viability, 501Mel Parental, 1μΜ (501Mel cells (parental); 1μΜ): 94.3
- cell viability, 501Mel Parental, 10μΜ (501Mel cells (parental); 10μΜ): 76.0
- cell viability, A375 GP, 1μΜ ([6]; 1μΜ): 95.9
- cell viability, A375 GP, 10μΜ ([6]; 10μΜ): 86.4
